Results from patent US20070270501A1, “Medicaments for Treating Barrett's Eesophagus” (Medical Research Council, priority 2004, published 2007).
Entries after “also recorded” stand apart in the source; their conditions may differ.

What was measured:
RARs = conditions: pan-RAR antagonist; read-out: Kd for binding to RARs; cited from earlier work
[1] = tested on: retinoid X receptor (RXR); conditions: cited from earlier work
[2] = tested on: CYP26A1 in squamous cell line (NES); experiment: RT-PCR of CYP26A1 expression in squamous cells; format: cell-based; conditions: squamous cells / normal squamous epithelium
Procedure: Expression of CYP26A1 in Barrett's (BAR, Qhtert) and squamous cell line (NES) is examined by RT-PCR. […] The control when nil is added is denoted by N. The LRAT is the enzyme for retinyl ester formation from excessive retinol.

[3] = tested on: Barrett's oesophagus biopsies; experiment: Ex vivo organ culture of Barrett's oesophagus biopsies with citral; format: cell-based, human
RAR = conditions: cited from earlier work
[4] = tested on: squamous oesophageal biopsies; experiment: Ex vivo organ culture of squamous oesophageal biopsies with retinoic acid
[5] = citral transformed tissue compared with native counterpart
[6] = retinoic acid transformed tissue compared with native counterpart

In the case of `CCc1ccc(C2=CC(C)(C)Sc3ccc(C#Cc4ccc(C(=O)O)cc4)cc32)cc1` [AGN194310], the Kd (RARs) is given as 2.5 nM.
In the case of `CCCN1c2ccccc2N=C(c2ccc(C(=O)O)cc2)c2cc3c(cc21)C(C)(C)CCC3(C)C` [HX603], the RXR antagonistic activity [1] is listed as “selective antagonistic activity”.
With `CC(C)=CCCC(C)=CC=O` [citral, 3,7-dimethyl-2,6-octadienal] the “CYP26A1 expression / regulation” value [2] was “depression of CYP26A1 activity; also recorded: down-regulated”, the “Barrett's explants with squamous phenotype” value ([3]; after 48 h citral in culture, 5/10 explants) was 50% and the BrdU incorporation [3, 5] was “lack of BrdU incorporation”. The Ki-67 staining [3, 5] was “reduced Ki-67 staining” and the “cytokeratin expression (immunohistochemistry)” value ([3]; citral treated Barrett's explants, 48 h) was “expression of CK13 and CK14, but not CK8/18”.
In the case of `CC1(C)CCC(C)(C)c2cc3c(cc21)CCc1c(-c2ccc(C(=O)O)cc2)cn(Cc2cccnc2)c1-3` [compound 31, 4-[4,5,7,8,9,10-hexahydro-7,7,10,-10-tetramethyl-1-(3-pyridylmethyl)anthra[1,2-b]pyrrol-3-yl]benzoic acid], the “effectiveness of RAR antagonism” value (RAR) is given as “most effective”.
For `CC1(C)CCC(C)(C)c2cc3c(cc21)SCc1c(-c2ccc(C(=O)O)cc2)cn(Cc2cccnc2)c1-3` [compound 40, 4-[4,5,7,8,9,10-hexahydro-7,7,10,10-tetramethyl-1-(3-pyridylmethyl)-5-thiaanthral[1,2-b]pyrrol-3-yl]benzoic acid], the “effectiveness of RAR antagonism” value (RAR) is given as “most effective”.
In the case of `CC1(C)CCC(C)(C)c2cc3c(cc21)CCc1c(-c2ccc(C(=O)O)cc2)nn(Cc2cccnc2)c1-3` [compound 55, 4-[4,5,7,8,9,10-hexahydro-7,7,10,10-tetramethyl-1-(3-pyridylmethyl)anthra[2,1-d]pyrazol-3-yl]benzoic acid], the “effectiveness of RAR antagonism” value (RAR) is listed as “most effective”.
With `CC1=C(/C=C/C(C)=C/C=C/C(C)=C/C(=O)O)C(C)(C)CCC1` [retinoic acid, all-trans retinoic acid] the “CYP26A1 expression / regulation” value [2] was “not induced”, the “squamous tissue with glandular phenotype (villiform surface and mucosal glands)” value ([4]; after 48 hours retinoic acid in culture, 8/31 explants) was 26% and the “epithelial markers by RT-PCR” value ([4]; full thickness squamous epithelial biopsy (NE)) was “induced the glandular epithelial markers CK 8/18 and 7 with reduction of the squamous epithelial CK13”. For the same molecule, the “cytokeratin expression (immunohistochemistry)” value ([4]; retinoic acid induced glandular tissue, 48 hours) was “expresses cytokeratins CK8/18 and CK7 but not CK13”, the BrdU incorporation [4, 6] was “lack of BrdU incorporation” and the Ki-67 staining [4, 6] was “reduced Ki-67 staining”. The p21 expression ([4]; retinoic acid treated squamous tissue) was “enhanced p21 expression” and the “villin (immunohistochemistry)” value ([4]; retinoic acid treated tissue) was “strongly induced”.
With `CC1=C(/C=C/C(C)=C/C=C/C(C)=C/CO)C(C)(C)CCC1` [retinol] the “CYP26A1 expression / regulation” value [2] was “not induced”.
